US20250049740A1, “COMPOUND AND USE THEREOF IN PREPARATION OF MEDICAMENT FOR TREATING ALZHEIMER'S DISEASE” (priority 2024, published 2025)

Experiments:
Format in all cases: in vivo, mouse
wild-type mice C57BL/6J [1] = assay: Y maze test, wild-type mice given OLDA / OLDA plus formula I
Experimental: (§1) 6-week-old female wild-type mice C57BL/6J were divided into a control group injected with normal saline (Ctrl), a diseased group (injected with OLDA), and a treatment group (Formula I-OLDA). The administration was carried out by intraperitoneal injection, and the diseased group (OLDA, 0.5 mg/kg to 1.5 mg/kg), the control group (injected with normal saline, the volume of which was equal to that in the diseased group), and the treatment group (0.5 mg/kg to 1.5 mg/kg of OLDA, and 0.5 mg/kg to 1.5 mg/kg of formula I, prepared into a mixed solution for administration) were all administered once a day by injection for 8 consecutive weeks. After administration, the learning and memory ability of the mice in each group was evaluated by Y maze and Morris water maze tests.

colon tissue [2] = assay: HE staining of colon tissue (colonic epithelium histopathology), wild-type mice
Experimental: as §1, with “tests. According to the standard operating procedure of mouse brain anatomy, the mice in the control group, diseased group and treatment group in Example 3 were sacrificed, and their brain tissues and colon tissues were collected respectively and cryopreserved at −80° C. The colon tissues in the diseased group and control group in Example 4 were examined by HE staining technology for colonic epithelium histopathology. The colon tissues of the mice in the treatment group in Example 4 were examined by HE staining technology for colonic epithelium histopathology and compared with the diseased group.” for “tests.”

Aβ and p-Tau181 [3] = assay: IHC of AD-related biochemical markers in brain tissue (hippocampus), wild-type mice
Experimental: as §1
(§2) According to the standard operating procedure of mouse brain anatomy, the mice in the control group, diseased group and treatment group in Example 3 were sacrificed, and their brain tissues and colon tissues were collected respectively and cryopreserved at −80° C.
(§3) The brain tissues of the mice in the diseased group and control group in Example 4 were examined by IHC technology for AD-related biochemical markers, and examined by IHC technology for the related markers of brain neuroinflammation.
The brain tissues of the mice in the treatment group in Example 4 were examined by IHC technology for AD-related biochemical markers and compared with the diseased group.

wild-type mice C57BL/6J [4] = assay: Morris water maze test, wild-type mice given OLDA / OLDA plus formula I; conditions: for number of times of crossing the original platform location: platform removed
Experimental: as §1

[5] = test system: IBA-1 and GFAP positive cells; assay: IHC of brain neuroinflammation markers, wild-type mice
Experimental: as §1, §2, §3
The brain tissues of the mice in the treatment group in Example 4 were examined by IHC technology for the related markers of brain neuroinflammation and compared with the diseased group.

colon tissue [6] = assay: Colon tissue histopathology, 3×Tg mice injected with formula I; conditions: 3×Tg mice injected with a composition containing formula I vs control group injected with normal saline
Text: (§4) 3×Tg mice (AD mice) in Example 2 were directly injected with a composition containing formula I (treatment group).

[7] = test system: IBA-1 and GFAP positive cells; assay: Brain neuroinflammation markers, 3×Tg mice injected with formula I; conditions: 3×Tg mice injected with a composition containing formula I vs control group injected with normal saline
Text: as §4

3×Tg mice (AD mice) [8] = assay: Morris water maze test, 3×Tg mice (AD mice) injected with formula I; conditions: 3×Tg mice injected with a composition containing formula I vs control group injected with normal saline
Text: as §4

3×Tg mice (AD mice) [9] = assay: Y maze test, 3×Tg mice (AD mice) injected with formula I; conditions: 3×Tg mice injected with a composition containing formula I vs control group injected with normal saline
Text: as §4

Aβ and p-Tau181 [10] = assay: AD markers in hippocampus, 3×Tg mice injected with formula I; conditions: 3×Tg mice injected with a composition containing formula I vs control group injected with normal saline
Text: as §4

[11] = OLDA 0.5 mg/kg to 1.5 mg/kg intraperitoneal once a day for 8 weeks, diseased group vs control group (normal saline)
[12] = OLDA diseased group vs control group
[13] = treatment group (OLDA and formula I, each 0.5 mg/kg to 1.5 mg/kg, mixed solution, intraperitoneal once a day, 8 weeks) vs diseased group (OLDA)
[14] = treatment group (OLDA and formula I) vs diseased group (OLDA)

## CCCCCCCC/C=C\CCCCCCCC(=O)NCCc1ccc(O)c(O)c1 [OLDA, N-oleoyl-dopamine, reference compound]
wild-type mice C57BL/6J [1]; [11]
  spontaneous alternation rate: significantly reduced
  total number of arm entries: significantly reduced
Colon tissue [2]; [12]
  inflammatory cells in the colon tissue: infiltrated into muscularis mucosa
  number of crypts: decreased
Aβ and p-Tau181 [3]; [12]
  area of Aβ in the hippocampus: significantly increased
  area of p-Tau181 in the hippocampus: significantly increased
wild-type mice C57BL/6J [4]; [11]
  time it took to find the platform (escape latency): significantly prolonged
wild-type mice C57BL/6J [4]; OLDA 0.5 mg/kg to 1.5 mg/kg intraperitoneal once a day for 8 weeks, diseased group vs control group
  number of times of crossing the original platform location: significantly reduced
[5]; [12]
  number of GFAP positive cells: increased
  number of IBA-1 positive cells: increased

## COc1cccc(NC(=O)/C=C/c2ccc(Cl)cc2)c1 [formula I]
wild-type mice C57BL/6J [1]; [13]
  spontaneous alternation rate: significantly increased
  total number of arm entries: significantly increased
Colon tissue [2]; [14]
  inflammatory cells in the colon tissue: infiltrated into muscularis mucosae
  number of crypts: increased
Colon tissue [6]
  inflammatory cells in the colon tissue: infiltrated into muscularis mucosae
  number of crypts: increased
Aβ and p-Tau181 [3]; [14]
  area of Aβ in the hippocampus: significantly decreased
  area of p-Tau181 in the hippocampus: significantly decreased
wild-type mice C57BL/6J [4]; [14]
  number of times of crossing the original platform location: significantly increased
wild-type mice C57BL/6J [4]; [13]
  time it took to find the platform (escape latency): significantly reduced
[7]
  number of GFAP positive cells: decreased
  number of IBA-1 positive cells: decreased
3×Tg mice (AD mice) [8]
  time it took to find the platform (escape latency): significantly reduced
3×Tg mice (AD mice) [8]; platform removed
  number of times of crossing the original platform location: significantly reduced
3×Tg mice (AD mice) [9]
  spontaneous alternation rate: significantly increased
  total number of arm entries: significantly increased
Aβ and p-Tau181 [10]
  area of Aβ in the hippocampus: decreased
  area of p-Tau181 in the hippocampus: decreased
[5]; [14]
  number of GFAP positive cells: decreased
  number of IBA-1 positive cells: decreased
